Experimental data: patent US8603518B2, “Hydroxybutyrate and poly-hydroxybutyrate as components of animal feed or feed additives” (Universiteit Gent, priority 2006, dated 2013)

Legend:
[1] = system: broiler chickens; test: Second broiler chicken growth trial with crystalline PHB, day 8 to day 29; assay type: in vivo; conditions: Day 8-29; dose 10 mg/kg
[2] = system: broiler chickens; test: Growth performance trial with broiler chickens, day 8 to day 22 (Rhodobacter sphaeroides biomass); assay type: in vivo, chickens (ROSS PM3); conditions: dose 10 mg/kg
Method: A growth performance trial with broiler chickens was performed from day 8 to day 22. The chickens were housed in wire-floored battery cages. From day-old until day 8, the chickens were fed a pre-experimental diet based on wheat, maize and soybean meal. In the experimental period (day 8 to 22) the chickens received diets based on wheat, rye and soybean meal (composition see Table 1). Groups of birds were weighed on days 8, 15, and 22. The feed consumption for the intermediate periods was determined and body weight gain and feed conversion ratio were calculated.

[3] = system: Artemia nauplii infected with Vibrio campbellii LMG21363; test: In vivo challenge test of Artemia nauplii with Vibrio campbellii LMG21363 (Example 8); parameters: species or system Artemia franciscana; conditions: 2 days challenge, mean ± standard error
Method: All challenge tests were performed with high quality hatching cysts of Artemia franciscana (EG® Type, batch 6940, INVE Aquaculture, Baasrode, Belgium). Two hundred mg of cysts were hydrated in 18 ml of tap water during 1 h. Sterile cysts and nauplii were obtained via decapsulation, adapted from the protocol described by Marques et al. (2004). […] The decapsulation was stopped after 2 min by adding 14 ml of Na2S2O3 (10 gl^−1). During the reaction, 0.22 μm filtered aeration was provided. The decapsulated cysts were washed with autoclaved artificial seawater containing 35 g l^−1 of Instant Ocean synthetic sea salt (Aquarium Systems Inc., Sarrebourg, France). The cysts were resuspended in a 50 ml tube containing 30 ml of filtered and autoclaved artificial seawater and hatched for 24 h on a rotor (4 min^−1) at 28° C. with constant illumination (approximately 2000 lux). Vibrio campbellii LMG21363 was stored in 40% glycerol at −80° C. Ten μl of this stored culture was inoculated into fresh Marine Broth (Difco Laboratories, Detroit, USA) and incubated overnight at 28° C. under constant agitation (100 min-1). The grown cultures of Vibrio campbellii were washed in autoclaved artificial seawater and the suspensions were diluted to an OD600 of approximately 0.1. 20 μl of the diluted suspensions was inoculated into the Artemia culture water. Aeromonas hydrophila LVS3 was used as feed for the nauplii (Defoirdt et al., 2005). The strain was grown overnight on Marine Agar (Difco Laboratories, Detroit, USA), suspended in sterile artificial seawater, diluted to an OD600 of approximately 1 and autoclaved. 300 μl of the autoclaved suspension was added to the Artemia culture water. […] Challenge tests were performed as described by Defoirdt et al. (2005), with slight modifications. Briefly, after hatching, groups of 20 nauplii were transferred to new sterile 50 ml tubes that contained 20 ml of filtered and autoclaved artificial seawater. The tubes were inoculated with Vibrio campbellii LMG21363 (except for the control, where no pathogen was added) and fed with LVS3. For the experiment with fatty acids, the fatty acids were dissolved in artificial seawater at different concentrations (25, 50 and 100 mM). The pH of the solutions was brought back to 7 and the solutions were filtersterilised over a 0.22 μm filter (Millipore, Bedford, USA). After feeding and the addition of the appropriate chemical and/or bacteria, the falcon tubes were put back on the rotor and kept at 28° C. […] All manipulations were done under a laminar flow hood in order to maintain sterility of the cysts and nauplii. Each treatment was done in triplicate.

[4] = system: Vibrio campbellii LMG21363; test: Growth of Vibrio campbellii LMG21363 in LB medium (OD600); assay type: cell-based; conditions: pH 6
Method: Vibrio campbellii LMG21363 was grown overnight in LB medium on a shaker at 28° C. Subsequently, the suspension was diluted 1:50 (v/v) in LB medium supplemented with butyrate (Sigma-Aldrich, Bornem, Belgium) or β-hydroxybutyrate (Sigma-Aldrich, Bornem, Belgium). For each compound, three solutions were made with the following concentrations: 25, 50 and 100 mM. LB medium without supplements was used as a control. The pH of all solutions was set at 6, 7 or 8. After inoculation, the suspensions were incubated at 28° C. in a static mode. Growth was monitored by measuring the optical density (OD600) during 20 h. Each treatment was performed in triplicate.

[5] = 25 mM in culture water at start
[6] = 100 mM in culture water at start

SMILES: COC[C@H]1O[C@@H](OC2OC[C@@H]3O[C@]4(O[C@H]3[C@H]2OC(=O)C(C)C)O[C@H](C)[C@@](O)(C(C)=O)[C@@H]2OCO[C@H]24)[C@@H](OC)[C@@H](O)[C@@H]1O[C@@H]1O[C@H](C)[C@H](OC)[C@H](O[C@H]2C[C@@]3(C)OC4(C[C@@H](O)[C@H](O[C@H]5C[C@@H](O)[C@H](OC(=O)c6c(C)c(Cl)c(O)c(Cl)c6OC)[C@@H](C)O5)[C@@H](C)O4)O[C@@H]3[C@@H](C)O2)[C@H]1O (stereo partly drawn) [Avilamycin]
- FCR [1]: 1.756 ± 0.079 g feed/g gain
- FCR, % of control [1]: 94.5%
- Feed intake [1]: 2402 ± 196 g/bird
- Feed intake, % of control [1]: 101.0%
- Weight gain [1]: 1367 ± 85 g/bird
- Weight gain, % of control [1]: 106.6%
- Feed conversion ([2]; Day 8-15): 1.652 ± 0.090 g feed/g gain
- Feed intake ([2]; Day 8-15): 552 ± 43 g/bird
- Weight gain ([2]; Day 8-15): 334 ± 20 g/bird
- Feed conversion ([2]; Day 8-22): 1.778 ± 0.072 g feed/g gain
- Feed conversion relative to control (control 100.0) ([2]; Day 8-22): 94.9
- Feed intake ([2]; Day 8-22): 1441 ± 100 g/bird
- Feed intake relative to control (control 100.0) ([2]; Day 8-22): 101.1
- Weight gain ([2]; Day 8-22): 810 ± 39 g/bird
- Weight gain relative to control (control 100.0) ([2]; Day 8-22): 106.7
- Feed conversion ([2]; Day 15-22): 1.867 ± 0.078 g feed/g gain
- Feed intake ([2]; Day 15-22): 889 ± 67 g/bird
- Weight gain ([2]; Day 15-22): 476 ± 24 g/bird

SMILES: CCCC(=O)O [butyrate]
- Survival [3, 5]: 48 ± 2 %
- Survival [3, 6]: 50 ± 5 %

SMILES: CC(O)CC(=O)O (stereo not drawn) [β-hydroxybutyrate, 3-hydroxybutyrate]
- Survival [3, 5]: 38 ± 15%
- Survival [3, 6]: 40 ± 3 %
- Growth of Vibrio campbellii ([4]; 100 mM): strongly inhibited
- Growth of Vibrio campbellii ([4]; lower concentrations): not completely inhibited
